Experimental data from ChEMBL document CHEMBL2016453, “Design, synthesis and anticonvulsant activities of novel 1-(substituted/unsubstituted benzylidene)-4-(4-(6,8-dibromo-2-(methyl/phenyl)-4-oxoquinazolin-3(4H)-yl)phenyl) semicarbazide derivatives” (Bioorg Med Chem Lett, 2012).
The source made the active and inactive calls. The rule behind the calls is not given here.

What was measured:
Rattus norvegicus [1] = assay: Anticonvulsant activity in Wistar rat assessed as protection against maximal electroshock-induced seizures at 30 mg/kg, po after 1 hr; type: functional
Rattus norvegicus [2] = assay: Anticonvulsant activity in Wistar rat assessed as protection against maximal electroshock-induced seizures at 30 mg/kg, po after 4 hrs; type: functional
Mus musculus [3] = assay: Neurotoxicity in Swiss albino mouse assessed as motor impairment at 300 mg/kg, ip after 4 hrs by rotorod test; type: toxicity, organism-based; design: dose 300 mg/kg, route intraperitoneal; conditions: in vivo
Mus musculus [4] = assay: Anticonvulsant activity in ip dosed Swiss albino mouse assessed as protection against subcutaneous pentylenetetrazole-induced seizures after 0.5 hrs; type: functional; conditions: read-out: MED
Rattus norvegicus [5] = assay: Anticonvulsant activity in Wistar rat maximal electroshock-induced seizures model assessed as time spend in hind leg tonic extensor phase at 30 mg/kg, po after 2 hrs relative to control; type: functional
Rattus norvegicus [6] = assay: Anticonvulsant activity in Wistar rat maximal electroshock-induced seizures model assessed as time spend in hind leg tonic extensor phase at 30 mg/kg, po after 4 hrs relative to control; type: functional
Mus musculus [7] = assay: Anticonvulsant activity in ip dosed Swiss albino mouse assessed as protection against subcutaneous pentylenetetrazole-induced seizures after 4 hrs; type: functional; conditions: read-out: MED
Rattus norvegicus [8] = assay: Neurotoxicity in Wistar rat assessed as motor impairment at 30 mg/kg, po by rotorod test; type: toxicity, organism-based; design: dose 30 mg/kg, route oral; conditions: in vivo
Rattus norvegicus [9] = assay: Anticonvulsant activity in Wistar rat assessed as protection against maximal electroshock-induced seizures at 30 mg/kg, po after 0.25 hrs; type: functional
Rattus norvegicus [10] = assay: Anticonvulsant activity in Wistar rat assessed as protection against maximal electroshock-induced seizures at 30 mg/kg, po after 0.5 hrs; type: functional
Mus musculus [11] = assay: Neurotoxicity in Swiss albino mouse assessed as motor impairment at 300 mg/kg, ip after 0.5 hrs by rotorod test; type: toxicity, organism-based; design: dose 300 mg/kg, route intraperitoneal; conditions: in vivo
Mus musculus [12] = assay: Anticonvulsant activity in ip dosed Swiss albino mouse assessed as protection against maximal electroshock-induced seizures after 4 hrs; type: functional; conditions: read-out: MED
Rattus norvegicus [13] = assay: Anticonvulsant activity in Wistar rat maximal electroshock-induced seizures model assessed as time spend in hind leg tonic extensor phase at 30 mg/kg, po after 0.5 hrs relative to control; type: functional
Rattus norvegicus [14] = assay: Anticonvulsant activity in Wistar rat maximal electroshock-induced seizures model assessed as time spend in hind leg tonic extensor phase at 30 mg/kg, po after 0.25 hrs relative to control; type: functional
Rattus norvegicus [15] = assay: Anticonvulsant activity in Wistar rat assessed as protection against maximal electroshock-induced seizures at 30 mg/kg, po after 2 hrs; type: functional
Mus musculus [16] = assay: Anticonvulsant activity in ip dosed Swiss albino mouse assessed as protection against maximal electroshock-induced seizures after 0.5 hrs; type: functional; conditions: read-out: MED
Rattus norvegicus [17] = assay: Anticonvulsant activity in Wistar rat maximal electroshock-induced seizures model assessed as time spend in hind leg tonic extensor phase at 30 mg/kg, po after 1 hr relative to control; type: functional
Mus musculus [18] = assay: Anticonvulsant activity in Swiss albino mouse assessed as protection against subcutaneous pentylenetetrazole-induced seizures at 300 mg/kg, ip after 4 hrs; type: functional, organism-based; design: dose 300 mg/kg
Mus musculus [19] = assay: Anticonvulsant activity in Swiss albino mouse assessed as protection against maximal electroshock-induced seizures at 300 mg/kg, ip after 4 hrs; type: functional, organism-based; design: dose 300 mg/kg
[20] = Neurotoxicity in ip dosed Swiss albino mouse assessed as maximum tolerated dose after 4 hrs by rotorod test; type: toxicity, organism-based; conditions: in vivo
Mus musculus [21] = assay: Anticonvulsant activity in Swiss albino mouse assessed as protection against subcutaneous pentylenetetrazole-induced seizures at 300 mg/kg, ip after 0.5 hrs; type: functional, organism-based; design: dose 300 mg/kg
Mus musculus [22] = assay: Anticonvulsant activity in Swiss albino mouse assessed as protection against maximal electroshock-induced seizures at 300 mg/kg, ip after 0.5 hrs; type: functional, organism-based; design: dose 300 mg/kg
[23] = Neurotoxicity in ip dosed Swiss albino mouse assessed as maximum tolerated dose after 0.5 hrs by rotorod test; type: toxicity, organism-based; conditions: in vivo

SMILES | Activity (Rattus norvegicus [1]) | Activity (Rattus norvegicus [2]) | Activity (Mus musculus [3]) | minimal effective dose (Mus musculus [4]) | Time (Rattus norvegicus [5]) | Time (Rattus norvegicus [6]) | minimal effective dose (Mus musculus [7]) | Activity (Rattus norvegicus [8]) | Activity (Rattus norvegicus [9]) | Activity (Rattus norvegicus [10]) | Activity (Mus musculus [11]) | minimal effective dose (Mus musculus [12]) | Time (Rattus norvegicus [13]) | Time (Rattus norvegicus [14]) | Activity (Rattus norvegicus [15]) | minimal effective dose (Mus musculus [16]) | Time (Rattus norvegicus [17]) | Activity (Mus musculus [18]) | Activity (Mus musculus [19]) | MTD at 4 h [20] | other results
CN(C)c1ccc(/C=N/NC(=O)Nc2ccc(-n3c(-c4ccccc4)nc4c(Br)cc(Br)cc4c3=O)cc2)cc1 | 38% | 0% | Non-toxic | 100 mg/kg | 11.63 s | 11.88 s | 300 mg/kg | Non-toxic | 0% | 13% | Non-toxic | 300 mg/kg | 10.75 s | 12.75 s | 0% | 100 mg/kg | 7.5 s | – | – | – | –
Cc1nc2c(Br)cc(Br)cc2c(=O)n1-c1ccc(NC(=O)N/N=C/c2ccccc2)cc1 | – | – | Non-toxic | 300 mg/kg | – | – | – | – | – | – | Non-toxic | 300 mg/kg | – | – | – | 100 mg/kg | – | inactive | – | – | –
Cc1nc2c(Br)cc(Br)cc2c(=O)n1-c1ccc(NC(=O)N/N=C/c2ccc(O)cc2)cc1 | 88% | 100% | Non-toxic | 100 mg/kg | 0 s | 0 s | 300 mg/kg | Non-toxic | 25% | 75% | Non-toxic | 30 mg/kg | 2.38 s | 6.63 s | 100% | 30 mg/kg | 1.25 s | – | – | – | –
Cc1nc2c(Br)cc(Br)cc2c(=O)n1-c1ccc(NC(=O)N/N=C/c2ccc([N+](=O)[O-])cc2)cc1 | – | – | – | – | – | – | 300 mg/kg | – | – | – | Non-toxic | – | – | – | – | 100 mg/kg | – | – | inactive | 300 mg/kg | Activity (Mus musculus [21]): inactive
O=C(N/N=C/c1ccc(Cl)cc1)Nc1ccc(-n2c(-c3ccccc3)nc3c(Br)cc(Br)cc3c2=O)cc1 | – | – | – | – | – | – | – | – | – | – | – | – | – | – | – | – | – | inactive | inactive | – | Activity (Mus musculus [22]): inactive; Activity (Mus musculus [21]): inactive
CCC1(C)CC(=O)NC1=O (configuration not stated) [ETHOSUXIMIDE] | – | – | Non-toxic | 100 mg/kg | – | – | 300 mg/kg | – | – | – | Non-toxic | – | – | – | – | – | – | – | inactive | – | Activity (Mus musculus [22]): inactive
Cc1nc2c(Br)cc(Br)cc2c(=O)n1-c1ccc(NC(=O)N/N=C/c2ccc(N(C)C)cc2)cc1 | 88% | 100% | – | 100 mg/kg | 0 s | 0 s | 300 mg/kg | Non-toxic | 25% | 75% | – | 30 mg/kg | 2.88 s | 8.38 s | 100% | 30 mg/kg | 1.38 s | – | – | 300 mg/kg | MTD at 0.5 h [23]: 300 mg/kg
O=C(N/N=C/c1cccc([N+](=O)[O-])c1)Nc1ccc(-n2c(-c3ccccc3)nc3c(Br)cc(Br)cc3c2=O)cc1 | – | – | – | – | – | – | 300 mg/kg | – | – | – | – | – | – | – | – | – | – | – | inactive | – | Activity (Mus musculus [22]): inactive; Activity (Mus musculus [21]): inactive
COc1cc(/C=N/NC(=O)Nc2ccc(-n3c(-c4ccccc4)nc4c(Br)cc(Br)cc4c3=O)cc2)ccc1O | – | – | – | 300 mg/kg | – | – | – | – | – | – | – | 300 mg/kg | – | – | – | 100 mg/kg | – | inactive | – | 300 mg/kg | MTD at 0.5 h [23]: 100 mg/kg
COc1cc(/C=N/NC(=O)Nc2ccc(-n3c(C)nc4c(Br)cc(Br)cc4c3=O)cc2)ccc1O | 25% | 0% | Non-toxic | 100 mg/kg | 12.38 s | 12.25 s | 300 mg/kg | Non-toxic | 0% | 50% | Non-toxic | 100 mg/kg | 5.88 s | 12.88 s | 0% | 30 mg/kg | 9.5 s | – | – | – | –
O=C(N/N=C/c1ccc([N+](=O)[O-])cc1)Nc1ccc(-n2c(-c3ccccc3)nc3c(Br)cc(Br)cc3c2=O)cc1 | – | – | – | 300 mg/kg | – | – | – | – | – | – | – | – | – | – | – | – | – | inactive | inactive | – | Activity (Mus musculus [22]): inactive
Cc1nc2c(Br)cc(Br)cc2c(=O)n1-c1ccc(NC(=O)N/N=C/c2cccc([N+](=O)[O-])c2)cc1 | – | – | Non-toxic | 300 mg/kg | – | – | – | – | – | – | – | 300 mg/kg | – | – | – | 100 mg/kg | – | inactive | – | – | MTD at 0.5 h [23]: 300 mg/kg
O=C(N/N=C/c1ccccc1)Nc1ccc(-n2c(-c3ccccc3)nc3c(Br)cc(Br)cc3c2=O)cc1 | – | – | – | 300 mg/kg | – | – | 300 mg/kg | – | – | – | – | 300 mg/kg | – | – | – | 100 mg/kg | – | – | – | 300 mg/kg | MTD at 0.5 h [23]: 100 mg/kg
Cc1nc2c(Br)cc(Br)cc2c(=O)n1-c1ccc(NC(=O)N/N=C/c2ccc(Cl)cc2)cc1 | – | – | – | – | – | – | – | – | – | – | – | – | – | – | – | 300 mg/kg | – | inactive | inactive | – | Activity (Mus musculus [21]): inactive
O=C(N/N=C/c1ccc(O)cc1)Nc1ccc(-n2c(-c3ccccc3)nc3c(Br)cc(Br)cc3c2=O)cc1 | 0% | 50% | – | 300 mg/kg | 9 s | 6.5 s | 300 mg/kg | Non-toxic | 0% | 0% | Non-toxic | 300 mg/kg | 12.38 s | 12.5 s | 25% | 30 mg/kg | 12 s | – | – | 300 mg/kg | –
O=C1NC(=O)C(c2ccccc2)(c2ccccc2)N1 [PHENYTOIN] | 75% | 75% | – | – | 1.88 s | 1.38 s | – | Non-toxic | 25% | 100% | – | 30 mg/kg | 0 s | 7.13 s | 75% | 30 mg/kg | 2.63 s | inactive | – | – | Activity (Mus musculus [21]): inactive
